Results as given in PubChem BioAssay AID248 (DTP/NCI, 2004).
Values joined by “and” are separate entries in the source; they are usually repeats but may differ in a detail not shown here. Equal entries are not always repeated. Toxic doses and inconclusive results are not listed. Cut-off read from the data, not from the text of the source: active = T/C of 150% or more; inactive = T/C below 125%.

Test system: L1210 leukemia ip in BDF1 mice, survival T/C
Test: NCI In Vivo Anticancer Drug Screen. Data for tumor model L1210 Leukemia (intraperitoneal) in B6D2F1 (BDF1) mice
Settings: endpoint: mean survival time, higher = longer survival
Outline: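 Each compound was tested against a transplantable tumor grown in mice. The endpoint was survival, with treated animals benchmarked against vehicle controls as a simple ratio.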

[1] = dose: 100.0 mg/kg/injection, schedule: Q04DX003 (ip), vehicle: saline
[2] = dose: 200.0 mg/kg/injection, schedule: Q04DX003 (ip), vehicle: saline
[3] = dose: 100.0 mg/kg/injection, schedule: Q04DX002 (ip), vehicle: Klucel (hydroxypropylcellulose) (HPC)
[4] = dose: 200.0 mg/kg/injection, schedule: Q04DX002 (ip), vehicle: Klucel (hydroxypropylcellulose) (HPC)
[5] = dose: 400.0 mg/kg/injection, schedule: Q04DX002 (ip), vehicle: Klucel (hydroxypropylcellulose) (HPC)
[6] = dose: 100.0 mg/kg/injection, schedule: Q01DX001 (ip), vehicle: saline
[7] = dose: 200.0 mg/kg/injection, schedule: Q01DX001 (ip), vehicle: saline
[8] = dose: 400.0 mg/kg/injection, schedule: Q01DX001 (ip), vehicle: saline
[9] = dose: 100.0 mg/kg/injection, schedule: Q01DX009 (ip), vehicle: Klucel (hydroxypropylcellulose) (HPC)
[10] = dose: 200.0 mg/kg/injection, schedule: Q01DX009 (ip), vehicle: Klucel (hydroxypropylcellulose) (HPC)
[11] = dose: 400.0 mg/kg/injection, schedule: Q01DX009 (ip), vehicle: Klucel (hydroxypropylcellulose) (HPC)
[12] = dose: 3.13 mg/kg/injection, schedule: Q04DX002 (ip), vehicle: saline with Tween-80
[13] = dose: 6.25 mg/kg/injection, schedule: Q04DX002 (ip), vehicle: saline with Tween-80
[14] = dose: 25.0 mg/kg/injection, schedule: Q04DX002 (ip), vehicle: saline with Tween-80
[15] = dose: 100.0 mg/kg/injection, schedule: Q04DX003 (ip), vehicle: Klucel (hydroxypropylcellulose) (HPC)
[16] = dose: 200.0 mg/kg/injection, schedule: Q04DX003 (ip), vehicle: Klucel (hydroxypropylcellulose) (HPC)
[17] = dose: 400.0 mg/kg/injection, schedule: Q04DX003 (ip), vehicle: Klucel (hydroxypropylcellulose) (HPC)

Measured: T/C

OCC1(c2ccccc2)CCCC1(CO)c1ccccc1 (configuration not stated)
inactive: dose: 15.0 mg/kg/injection, schedule: Q01DX001 (ip), vehicle: carboxymethylcellulose (CMC) 95 % of control | dose: 30.0 mg/kg/injection, schedule: Q01DX001 (ip), vehicle: carboxymethylcellulose (CMC) 93 % of control | dose: 60.0 mg/kg/injection, schedule: Q01DX001 (ip), vehicle: carboxymethylcellulose (CMC) 91 % of control

C=C(Br)CNC(=O)OCCCC
inactive: dose: 12.5 mg/kg/injection, schedule: Q01DX009 (ip), vehicle: saline with Tween-80 94 % of control | dose: 25.0 mg/kg/injection, schedule: Q01DX009 (ip), vehicle: saline with Tween-80 100 % of control | dose: 50.0 mg/kg/injection, schedule: Q01DX009 (ip), vehicle: saline with Tween-80 98 % of control | [1] 94 % of control | [2] 102 % of control

C1=CN2CC(c3ccccc3)=NNC2c2ccccc21 (configuration not stated)
inactive: dose: 100.0 mg/kg/injection, schedule: Q04DX003 (ip), vehicle: alcohol 107 % of control | [1] 97 % of control | [2] 97 % of control

CC(C)Oc1c(NCCO)c2cc(Cl)ccc2oc1=O
inactive: [3] 103 % of control | [4] 106 % of control | [5] 106 % of control

Cc1cc2c(cc1C)N(C(=O)CN1CCSCC1)CC(=O)N2
inactive: dose: 75.0 mg/kg/injection, schedule: Q01DX001 (ip), vehicle: saline 107 % of control | dose: 75.0 mg/kg/injection, schedule: Q04DX003 (ip), vehicle: saline 93 % of control | dose: 150.0 mg/kg/injection, schedule: Q01DX001 (ip), vehicle: saline 98 % of control | dose: 150.0 mg/kg/injection, schedule: Q04DX003 (ip), vehicle: saline 94 % of control | dose: 300.0 mg/kg/injection, schedule: Q01DX001 (ip), vehicle: saline 109 % of control | dose: 300.0 mg/kg/injection, schedule: Q04DX003 (ip), vehicle: saline 91 % of control

Cc1nc(N)[nH]c(=O)c1CCCNCc1ccco1
inactive: [6] 100 % of control | [7] 103 % of control | [8] 99 % of control

Clc1ccc(C2SCCS2)c(Cl)c1
inactive: [9] 105 % of control | [10] 108 % of control | [11] 124 % of control

O=[N+]([O-])c1ccccc1N=Nc1c(O)[nH]c2ccc(Cl)cc12
inactive: [6] 95 % of control | [8] 92 % of control

c1ccc(C(=NN(CCN(N=C(c2ccccc2)c2ccccc2)c2ccccc2)c2ccccc2)c2ccccc2)cc1
inactive: dose: 50.0 mg/kg/injection, schedule: Q01DX001 (ip), vehicle: saline 101 % of control | [6] 92 % of control | [7] 86 % of control | [8] 92 % of control

CCN(CC)CCCC(C)Nc1ccnc2ccc(-c3ccccc3)cc12 (configuration not stated)
inactive: dose: 5.0 mg/kg/injection, schedule: Q01DX001 (ip), vehicle: saline 100 % of control | dose: 10.0 mg/kg/injection, schedule: Q01DX001 (ip), vehicle: saline 100 % of control | dose: 20.0 mg/kg/injection, schedule: Q01DX001 (ip), vehicle: saline 91 % of control | dose: 40.0 mg/kg/injection, schedule: Q01DX001 (ip), vehicle: saline 96 % of control | dose: 80.0 mg/kg/injection, schedule: Q01DX001 (ip), vehicle: saline 104 % of control

O=S(=O)(O)N(O)S(=O)(=O)O
inactive: dose: 100.0 mg/kg/injection, schedule: Q04DX002 (ip), vehicle: saline 97 % of control | [1] 97 % of control | dose: 200.0 mg/kg/injection, schedule: Q04DX002 (ip), vehicle: saline 97 % of control | [2] 90 % of control | dose: 400.0 mg/kg/injection, schedule: Q04DX002 (ip), vehicle: saline 102 % of control

CN1CN(c2ccccc2)C2(CCN(CCCC3Cc4ccccc4O3)CC2)C1=O (configuration not stated)
inactive: dose: 12.0 mg/kg/injection, schedule: Q01DX001 (ip), vehicle: Klucel (hydroxypropylcellulose) (HPC) 95 % of control | dose: 25.0 mg/kg/injection, schedule: Q01DX001 (ip), vehicle: Klucel (hydroxypropylcellulose) (HPC) 98 % of control | dose: 50.0 mg/kg/injection, schedule: Q01DX001 (ip), vehicle: Klucel (hydroxypropylcellulose) (HPC) 96 % of control

CCOC(=O)C1CC1(C)Br (configuration not stated)
inactive: [12] 97 % of control | [13] 87 % of control | [14] 87 % of control | dose: 100.0 mg/kg/injection, schedule: Q04DX002 (ip), vehicle: saline with Tween-80 90 % of control

Fc1c(F)c(F)[c]([Hg][c]2c(F)c(F)c(F)c(F)c2F)c(F)c1F
inactive: [12] 107 % of control | [13] 93 % of control | dose: 12.5 mg/kg/injection, schedule: Q04DX002 (ip), vehicle: saline with Tween-80 87 % of control | [14] 97 % of control

Nc1nc2ncc(C(=O)O)nc2c(=O)[nH]1
inactive: dose: 50.0 mg/kg/injection, schedule: Q04DX003 (ip), vehicle: saline 98 % of control | [1] 97 % of control and 104 % of control | dose: 400.0 mg/kg/injection, schedule: Q04DX003 (ip), vehicle: saline 105 % of control

O=C(NCCCl)Nc1cccc2cc3ccccc3cc12
inactive: [9] 95 % of control | [15] 96 % of control | [10] 103 % of control | [16] 96 % of control | [11] 95 % of control | [17] 102 % of control

O=C(NCCCl)C(Cl)(Cl)Cl
inactive: [15] 98 % of control | [16] 97 % of control | [17] 106 % of control

CCOCCOC(=O)COCC(=O)OCCOCC
inactive: [6] 100 % of control | [7] 94 % of control | [8] 98 % of control

CC(=O)Oc1cc(C(c2ccccc2)c2ccccc2)ccc1N(C(C)=O)S(=O)(=O)c1ccccc1
inactive: dose: 100.0 mg/kg/injection, schedule: Q04DX003 (ip), vehicle: saline with Tween-80 92 % of control | dose: 200.0 mg/kg/injection, schedule: Q04DX003 (ip), vehicle: saline with Tween-80 88 % of control | dose: 400.0 mg/kg/injection, schedule: Q04DX003 (ip), vehicle: saline with Tween-80 92 % of control

Nc1ccc(CC2=C(Br)CNC(=O)N2)cc1
inactive: dose: 100.0 mg/kg/injection, schedule: Q01DX001 (ip), vehicle: Klucel (hydroxypropylcellulose) (HPC) 102 % of control | dose: 200.0 mg/kg/injection, schedule: Q01DX001 (ip), vehicle: Klucel (hydroxypropylcellulose) (HPC) 103 % of control

O=C(O)/C=C/C(=O)Nc1cccc(NC(=O)/C=C/C(=O)O)c1
inactive: [15] 94 % of control | [16] 97 % of control | [17] 96 % of control

Cc1ccc(C)c(CNC(=O)Nc2ccccc2Cl)c1
inactive: [9] 97 % of control | [10] 101 % of control

CSc1cc2c(cc1NC(C)=O)Cc1cc(F)ccc1-2
inactive: dose: 100.0 mg/kg/injection, schedule: Q01DX001 (ip), vehicle: carboxymethylcellulose (CMC) 98 % of control | dose: 200.0 mg/kg/injection, schedule: Q01DX001 (ip), vehicle: carboxymethylcellulose (CMC) 101 % of control | dose: 400.0 mg/kg/injection, schedule: Q01DX001 (ip), vehicle: carboxymethylcellulose (CMC) 95 % of control

Cc1cc(C)c(NC(=O)Nc2cccc(F)c2)c(C)c1
inactive: [9] 96 % of control | [3] 98 % of control | [10] 105 % of control | [4] 102 % of control | [5] 102 % of control

COc1ccc(NC(=O)Nc2c(C)cccc2C)cc1
inactive: dose: 100.0 mg/kg/injection, schedule: Q01DX009 (ip), vehicle: gum acacia 97 % of control | dose: 100.0 mg/kg/injection, schedule: Q04DX003 (ip), vehicle: gum acacia 97 % of control | dose: 200.0 mg/kg/injection, schedule: Q01DX009 (ip), vehicle: gum acacia 97 % of control | dose: 200.0 mg/kg/injection, schedule: Q04DX003 (ip), vehicle: gum acacia 92 % of control | dose: 400.0 mg/kg/injection, schedule: Q01DX009 (ip), vehicle: gum acacia 92 % of control | dose: 400.0 mg/kg/injection, schedule: Q04DX003 (ip), vehicle: gum acacia 91 % of control
